Data set [1] addresses T1, ATP7A (Homo sapiens, UniProt Q04656).
T1 construct: expressed in transfected cells; host or cells: HEK293 (detergent-free lysate)
T1 sequence (Q04656 1-1500): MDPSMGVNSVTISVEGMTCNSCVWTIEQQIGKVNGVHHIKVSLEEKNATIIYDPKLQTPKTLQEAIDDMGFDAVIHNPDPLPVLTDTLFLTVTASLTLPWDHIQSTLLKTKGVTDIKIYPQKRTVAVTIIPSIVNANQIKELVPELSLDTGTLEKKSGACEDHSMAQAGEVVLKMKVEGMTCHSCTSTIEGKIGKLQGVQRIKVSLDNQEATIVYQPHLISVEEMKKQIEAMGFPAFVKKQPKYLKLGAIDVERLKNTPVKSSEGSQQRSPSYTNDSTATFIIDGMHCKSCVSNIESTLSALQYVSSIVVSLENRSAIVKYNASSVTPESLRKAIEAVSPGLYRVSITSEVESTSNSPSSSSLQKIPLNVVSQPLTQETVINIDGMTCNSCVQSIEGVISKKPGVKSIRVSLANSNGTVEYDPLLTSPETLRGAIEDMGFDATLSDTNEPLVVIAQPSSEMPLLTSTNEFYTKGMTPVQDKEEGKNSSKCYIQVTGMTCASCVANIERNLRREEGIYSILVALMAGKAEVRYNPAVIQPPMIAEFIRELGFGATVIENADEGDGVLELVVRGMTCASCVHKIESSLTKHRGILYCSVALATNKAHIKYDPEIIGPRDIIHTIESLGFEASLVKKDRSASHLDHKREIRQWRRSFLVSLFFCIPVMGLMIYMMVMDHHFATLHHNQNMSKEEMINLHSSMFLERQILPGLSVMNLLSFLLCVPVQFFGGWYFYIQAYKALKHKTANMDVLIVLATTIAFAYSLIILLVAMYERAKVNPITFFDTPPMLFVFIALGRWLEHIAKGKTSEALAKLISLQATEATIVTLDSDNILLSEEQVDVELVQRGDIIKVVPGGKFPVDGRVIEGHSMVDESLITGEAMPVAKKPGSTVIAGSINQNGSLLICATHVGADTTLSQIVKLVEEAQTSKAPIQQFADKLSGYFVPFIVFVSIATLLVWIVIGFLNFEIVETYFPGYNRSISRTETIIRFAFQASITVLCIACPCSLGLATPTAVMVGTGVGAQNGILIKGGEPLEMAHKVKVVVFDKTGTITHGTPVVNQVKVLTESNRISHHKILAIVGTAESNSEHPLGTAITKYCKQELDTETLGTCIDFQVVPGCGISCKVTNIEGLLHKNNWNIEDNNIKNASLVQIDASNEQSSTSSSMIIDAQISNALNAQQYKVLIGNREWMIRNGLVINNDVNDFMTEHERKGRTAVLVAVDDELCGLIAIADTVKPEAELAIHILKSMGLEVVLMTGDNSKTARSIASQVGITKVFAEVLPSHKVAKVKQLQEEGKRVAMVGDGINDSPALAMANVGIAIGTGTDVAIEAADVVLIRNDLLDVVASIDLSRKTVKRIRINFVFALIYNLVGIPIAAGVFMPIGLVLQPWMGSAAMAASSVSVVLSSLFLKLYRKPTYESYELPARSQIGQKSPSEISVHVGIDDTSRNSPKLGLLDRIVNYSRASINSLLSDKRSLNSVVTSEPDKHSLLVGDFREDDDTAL
Put plainly: Microscale thermophoresis (MST) binding to GFP-ATP7A in HEK293 cell lysates. The following applies: for Kd: MST analysis, read-out: ATP7A Binding Affinity KD. A general note: MST reads how a fluorescent partner responds to local heating, with and without ligand.

Data set [2] concerns tyrosinase activity in B16 melanoma cells. Put plainly: Tyrosinase activity in wild type B16 melanoma cells (L-DOPA to DOPAchrome), proxy for ATP7A inhibition. In kind it is cell-based. The note with it: for IC50: Mus musculus, B16 cells. The source says: Tyrosinase is a cuproenzyme involved in melanogenesis that receives copper via ATP7A in the secretory pathway. […] Thus, reductions in tyrosinase activity in wild type B16 cells can be used as a proxy for inhibition of ATP7A. […]

Data set [3] is described as follows: Cytotoxicity in B16 cells by MTT and crystal violet assays. In kind it is cell-based. The following applies: mouse, B16 melanoma cells; B16 cells, MTT and crystal violet assays; read-out: half-maximal cytotoxic concentration (CC50). The source says: This is consistent with lower affinity of MKV1 for ATP7A (FIG. 6E).
Data set [4] concerns GFP alone. Put plainly: Microscale thermophoresis (MST), GFP alone as negative control. In kind it is binding. The source says: (§1) Coordinating residues D935 and E798 are predicted to bind copper during transport.
The target in data set [5] is T2, ATP7B (Homo sapiens, UniProt P35670).
T2 construct: expressed in transfected cells; host or cells: HEK293 (detergent-free lysate)
T2 sequence (P35670 1-1465): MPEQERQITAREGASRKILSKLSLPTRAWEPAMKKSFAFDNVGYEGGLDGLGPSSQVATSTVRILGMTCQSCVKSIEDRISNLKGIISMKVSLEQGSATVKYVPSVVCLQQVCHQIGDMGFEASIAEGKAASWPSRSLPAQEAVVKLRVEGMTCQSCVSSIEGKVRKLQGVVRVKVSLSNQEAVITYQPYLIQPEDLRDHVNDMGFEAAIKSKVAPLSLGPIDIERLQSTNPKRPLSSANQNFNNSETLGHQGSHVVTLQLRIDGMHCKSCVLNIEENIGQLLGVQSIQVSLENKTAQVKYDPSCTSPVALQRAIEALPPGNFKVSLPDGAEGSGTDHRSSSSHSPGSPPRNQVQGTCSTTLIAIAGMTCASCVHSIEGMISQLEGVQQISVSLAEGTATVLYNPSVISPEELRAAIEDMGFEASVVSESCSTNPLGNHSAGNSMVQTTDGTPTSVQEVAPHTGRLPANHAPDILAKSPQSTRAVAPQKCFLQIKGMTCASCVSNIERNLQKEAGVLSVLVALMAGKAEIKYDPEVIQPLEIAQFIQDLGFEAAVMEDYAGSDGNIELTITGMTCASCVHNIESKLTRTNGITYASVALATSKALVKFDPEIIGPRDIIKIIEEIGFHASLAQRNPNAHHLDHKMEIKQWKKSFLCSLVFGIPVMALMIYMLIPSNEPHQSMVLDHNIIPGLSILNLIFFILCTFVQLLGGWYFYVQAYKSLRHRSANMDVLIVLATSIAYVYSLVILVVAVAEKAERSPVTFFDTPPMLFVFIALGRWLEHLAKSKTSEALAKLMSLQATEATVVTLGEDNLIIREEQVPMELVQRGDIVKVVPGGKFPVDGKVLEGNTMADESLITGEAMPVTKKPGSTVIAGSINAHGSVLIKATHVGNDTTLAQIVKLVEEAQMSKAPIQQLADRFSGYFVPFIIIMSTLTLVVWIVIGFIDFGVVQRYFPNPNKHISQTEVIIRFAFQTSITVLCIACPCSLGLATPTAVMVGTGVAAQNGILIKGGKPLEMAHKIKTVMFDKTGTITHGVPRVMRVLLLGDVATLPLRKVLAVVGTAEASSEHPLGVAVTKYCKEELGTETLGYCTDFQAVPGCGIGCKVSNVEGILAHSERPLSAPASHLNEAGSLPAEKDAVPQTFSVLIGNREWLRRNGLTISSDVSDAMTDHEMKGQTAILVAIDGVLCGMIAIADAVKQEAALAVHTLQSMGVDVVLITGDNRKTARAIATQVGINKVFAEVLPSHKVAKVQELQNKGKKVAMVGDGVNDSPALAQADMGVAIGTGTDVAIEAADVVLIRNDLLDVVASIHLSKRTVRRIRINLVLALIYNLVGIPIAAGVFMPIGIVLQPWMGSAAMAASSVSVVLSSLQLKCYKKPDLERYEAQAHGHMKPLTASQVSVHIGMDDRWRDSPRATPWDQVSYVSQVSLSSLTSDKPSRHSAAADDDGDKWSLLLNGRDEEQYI
Put plainly: Microscale thermophoresis (MST) binding to GFP-ATP7B in HEK293 cell lysates. The following applies: MST.
Description: as §1

Data set [6] deals with LOX activity. Put plainly: LOX activity secreted into conditioned media of cancer cells. The note with it: 4T1 breast cancer cells, compared with MKV3. In kind it is cell-based.
In data set [7] the test system is ΔcopA/ΔcopB strain of S. aureus. Put plainly: Growth of copper-sensitive ΔcopA/ΔcopB mutant strain of S. aureus. In kind it is cell-based, Staphylococcus aureus. The note with it: copper alone 50 μM. How it is done: Methicillin-resistant Staphylococcus aureus (MRSA) is a human pathogen that expresses two Cu-transporting P1B-type ATPases, CopA and CopB, which are known to enhance the virulence of this bacterium. 19A illustrates CopA and CopB copper exporters at the plasma membrane of S. aureus. […] The growth of the ΔcopA/ΔcopB strain was inhibited by approximately 50% when copper alone (50 μM) was added to the culture medium.
Wild type MRSA expresses two copper-exporting P1B-type ATPases, CopA and CopB that are required for copper tolerance (FIG. 19A). […] The same experiment was performed using MRSA in which both CopA and CopB genes were deleted (ΔcopA/ΔcopB). Consistent with the known role of CopA and CopB in copper tolerance, the growth of the ΔcopA/ΔcopB strain was inhibited by approximately 50% when copper alone (50 μM) was added to the culture medium (FIG. 19C).

From patent US20250017889A1, “INHIBITORS OF P1B-TYPE ATPASES” (THE CURATORS OF THE UNIVERSITY OF MISSOURI, priority 2021, published 2025) come the findings set out here.

Consider `O=C(CC(=S)Nc1ccccc1Cl)Nc1cccc(C(F)(F)F)c1` [MKV1D], for which the equilibrium dissociation constant (Kd) (as a rule, the concentration at which binding is half-saturated) in data set [1] amounted to 708 ± 42 nM. Further, 12.222 ± 0.005 µM corresponded to half-maximal inhibition in data set [2] (IC50).
With `O=C(CC(=S)Nc1ccccc1Cl)Nc1ccccc1` [MKV1A], in data set [1], the Kd amounted to 363 ± 24 nM. Besides, the midpoint of inhibition in data set [2], the IC50, lay at 21.559 ± 0.005 µM.
For the compound `O=C(CC(=S)Nc1ccccc1)Nc1ccccc1` [MKV1], in data set [3], the CC50 is around 270 µM. Besides, the “fold difference in affinity for ATP7A between MKV3 (higher) and MKV1 (lower)” value in data set [1] (MST) was “approximately 10 fold”. For the same compound, in data set [1], the Kd was 1830 ± 151 nM. The “in situ tyrosinase activity” value in data set [2] (50 μM, 24 h, wild type B16 melanoma cells) is listed as “loss of tyrosinase activity”. Moreover, the IC50 – broadly, the midpoint of a concentration-inhibition curve – in data set [2] was 29.98 ± 0.029 µM. For the same compound, in data set [4], the “binding to GFP alone” value is listed as “not to GFP alone”. Moreover, in data set [5], the “fold difference in affinity for ATP7B between MKV3 (higher) and MKV1 (lower)” value is “approximately 10 fold”. Also, the LOX activity entry in data set [6] is given as “inhibited LOX activity but only at higher concentrations than for MKV3”.
On to `N#CC(C(=O)Nc1cccc(C(F)(F)F)c1)C(=S)Nc1ccccc1` (stereo not drawn) [MKV1F], for which the Kd in data set [1] was found to be 1000 ± 59 nM. Besides, the IC50 in data set [2] was found to be 8.719 ± 0.014 µM.
Taken in the same sequence, the figures for `N#CC(C(=O)Nc1ccccc1)C(=S)Nc1ccccc1Cl` (stereo not drawn) [MKV1E] were 1060 ± 54 nM and 11.7 ± 0.001 µM.
Take `O=C(CC(=S)Nc1ccccc1)Nc1cccc(C(F)(F)F)c1` [MKV1C]: the Kd in data set [1] was 430 ± 16 nM. This compound yielded an IC50 in data set [2] of 16.18 ± 0.023 µM.
With copper, the “inhibition of growth of the ΔcopA/ΔcopB strain” value in data set [7] is on record as “approximately 50%”.
Take `N#CC(C(=O)Nc1ccccc1)C(=S)Nc1ccccc1` (stereo not drawn) [MKV1B]: in data set [1], the Kd amounted to 354 ± 21 nM. This compound displayed an IC50 in data set [2] of 21.87 ± 0.129 µM.
